Assay results: article PMC8703108, “Identifying of Anti-Thrombin Active Components From Curcumae Rhizoma by Affinity-Ultrafiltration Coupled With UPLC-Q-Exactive Orbitrap/MS” (Frontiers in Pharmacology, 2021)

Each compound was assayed against T1, thrombin (THR, FIIα) (Homo sapiens, UniProt P00734) (assay: chromogenic substrate S-2238 assay; affinity ultrafiltration LC-MS hit).
T1 construct: gene F2; human recombinant THR
Type: biochemical
For `CC(=O)OC(CCc1ccc(O)c(O)c1)CC(CCc1ccc(O)c(O)c1)OC(C)=O` (stereo not drawn) [C7, 4,4′-[3,5-bis(acetyloxy)-1,7-heptanediyl]bis-1,2-benzenediol], the IC50 was 358 µM. For `CC(=O)OC(CCc1ccc(O)cc1)CC(CCc1ccc(O)c(O)c1)OC(C)=O` (stereo not drawn) [C11, 4-[3,5-bis(acetyloxy)-7-(4-hydroxyphenyl)heptyl]-1,2-benzenediol], the IC50 was 654 µM. Work on `CC(=O)OC(CCc1ccc(O)cc1)CC(O)CCc1ccc(O)cc1` (stereo not drawn) [C8, 3-acetate-1,7-bis(4-hydroxyphenyl)-3,5-heptanediol] yielded an IC50 of 9.92 µM.
